Assay: cooling effect perceived on ingestion of the example compositions (microemulsion tea beverage, water ice, toothpaste)
Type: in vivo, human
Conditions: ingestion in the form of the compositions of Examples 1-3, relative to the same amount of the cooling active alone

With `COc1ccccc1N1CC=C(c2cccc([N+](=O)[O-])c2)NC1=O` [1-(2′-methoxyphenyl)-4-(3″-nitrophenyl)-1,2,3,6-tetrahydropyrimidine-2-one] the cooling effect perceived was “prolonged the cooling effect perceived”.
For `CC1CCC(C(C)C)C(O)C1` (centres unmarked) [menthol, 2-isopropyl-5-methyl-cyclohexanol], the cooling effect perceived was “prolonged the cooling effect perceived”.
